Results reported in patent US7169816B2, “4-bromo or 4-iodo phenylamino benzhydroxamic acid derivatives and their use as MEK inhibitors” (Warner-Lambert Company, priority 1997, dated 2007).
Counter-ions that a name gives are not always drawn.

target: p45MEK (GST-MEK) (Homo sapiens, UniProt Q02750); test: Cascade assay for inhibitors of the MAP kinase pathway (in vitro); type: biochemical
Experimental: Incorporation of ^32P into myelin basic protein (MBP) was assayed in the presence of a glutathione S-transferase fusion protein containing p44MAP kinase (GST-MAPK) and a glutathione S-transferase fusion protein containing p45MEK (GST-MEK). The assay solution contained 20 mM HEPES, pH 7.4, 10 mM MgCl2, 1 mM MnCl2, 1 mM EGTA, 50 μM [γ-^32P]ATP, 10 μg GST-MEK, 0.5 μg GST-MAPK and 40 μg MBP in a final volume of 100 μL. […] Compounds were assessed at 10 μM for ability to inhibit incorporation of ^32P.
To ascertain whether compounds were inhibiting GST-MEK or GST MAPK, two additional protocols were employed. In the first protocol, compounds were added to tubes containing GST-MEK, followed by addition of GST-MAPK, MBP and [γ-^32P]ATP. In the second protocol, compounds were added to tubes containing both GST-MEK and GST-MAPK, followed by MBP and [γ-^32P]ATP.

Row | IC50 | Compound
1 | 80 nM | Cc1cc(I)ccc1Nc1cc(F)ccc1C(=O)N(O)C(C)C [Example 78, 4-Fluoro-N-hydroxy-2-(4-iodo-2-methyl-phenylamino)-N-isopropyl-benzamide]
2 | 33 nM | Cc1cc(I)ccc1Nc1c(C(=O)NOCC(C)N(C)C)cc(Br)c(F)c1F (stereo not shown) [Example 92, 5-Bromo-N-(2-dimethylamino-propoxy)-3,4-difluoro-2-(4-iodo-2-methyl-phenylamino)-benzamide]
3 | 14 nM | Cc1cc(I)ccc1Nc1c(C(=O)NOCC2CC2)ccc(F)c1F [Example 56, N-Cyclopropylmethoxy-3,4-difluoro-2-(4-iodo-2-methyl-phenylamino)-benzamide]
4 | 45 nM | C#CCCONC(=O)c1cc(Br)c(F)c(F)c1Nc1ccc(I)cc1C [Example 31, 5-Bromo-N-(but-3-ynyloxy)-3,4-difluoro-2-(4-iodo-2-methyl-phenylamino)-benzamide]
5 | 14 nM | Cc1cc(I)ccc1Nc1c(C(=O)NOCc2ccoc2)ccc(F)c1F [Example 21, 3,4-Difluoro-N-(furan-3-ylmethoxy)-2-(4-iodo-2-methyl-phenylamino)-benzamide]
6 | 85 nM | Cc1cc(I)ccc1Nc1c(C(=O)NOC(C)C)cc(Br)c(F)c1F [Example 49, 5-Bromo-3,4-difluoro-2-(4-iodo-2-methyl-phenylamino)-N-isopropoxy-benzamide]
7 | 16 nM | C=C(C)CONC(=O)c1ccc(F)c(F)c1Nc1ccc(I)cc1C [Example 66, 3,4-Difluoro-2-(4-iodo-2-methyl-phenylamino)-N-(2-methyl-allyloxy)-benzamide]
8 | 86 nM | Cc1cc(I)ccc1Nc1cc(F)ccc1C(=O)NOCc1cccs1 [Example 62, 4-Fluoro-2-(4-iodo-2-methyl-phenylamino)-N-(thiophen-2-ylmethoxy)-benzamide]
9 | 25 nM | CCN(CC)CCONC(=O)c1cc(Br)c(F)c(F)c1Nc1ccc(I)cc1C [Example 98, 5-Bromo-N-(2-diethylamino-ethoxy)-3,4-difluoro-(4-iodo-2-methyl-phenylamino)-benzamide]
10 | 56 nM | Cc1cc(I)ccc1Nc1c(C(=O)NOCC#Cc2ccccc2F)ccc(F)c1F [Example 36, 3,4-Difluoro-N-[3-(2-fluoro-phenyl)-prop-2-ynyloxy]-2-(4-iodo-2-methyl-phenylamino)-benzamide]
11 | 102 nM | C#CCONC(=O)c1ccc(F)cc1Nc1ccc(I)cc1C [Example 25, 4-Fluoro-2-(4-iodo-2-methyl-phenylamino)-N-(prop-2-ynyloxy)-benzamide]
12 | 7130 nM | Cc1cc(F)ccc1Nc1cc(F)ccc1C(=O)NO [Example 8, 4-Fluoro-N-hydroxy-2-(4-fluoro-2-methyl-phenylamino)-benzamide]
13 | 140 nM | Cc1cc(I)ccc1Nc1c(C(=O)NOC2CCCC2)ccc(F)c1F [Example 53, N-Cyclopentyloxy-3,4-difluoro-2-(4-iodo-2-methyl-phenylamino)-benzamide]
14 | 43 nM | Cc1cc(I)ccc1Nc1c(C(=O)NOC2CCC2)ccc(F)c1F [Example 50, N-Cyclobutyloxy-3,4-difluoro-2-(4-iodo-2-methyl-phenylamino)-benzamide]
15 | 374 nM | Cc1cc(Br)ccc1Nc1c(C(=O)NOCC#Cc2ccccc2)ccc(F)c1F [Example 33, 3,4-Difluoro-2-(4-bromo-2-methyl-phenylamino)-N-(3-phenyl-prop-2-ynyloxy)-benzamide]
16 | 35 nM | CC=CCONC(=O)c1ccc(F)c(F)c1Nc1ccc(I)cc1C [Example 74, N-(But-2-enyloxy)-3,4-difluoro-2-(4-iodo-2-methyl-phenylamino)-benzamide]
17 | 279 nM | Cc1cc(Br)ccc1Nc1c(C(=O)NOCc2cccs2)ccc(F)c1F [Example 64, 2-(4-Bromo-2-methyl-phenylamino)-3,4-difluoro-N-(thiophen-2-ylmethoxy)-benzamide]
18 | 971 nM | C#CCCONC(=O)c1ccc(F)c(F)c1Nc1ccc(Br)cc1C [Example 30, 2-(4-Bromo-2-methyl-phenylamino)-N-(but-3-ynyloxy)-3,4-difluoro-benzamide]
19 | 80 nM | Cc1cc(I)ccc1Nc1cc(F)ccc1C(=O)N(C)O [Example 80, 4-Fluoro-N-hydroxy-2-(4-iodo-2-methyl-phenylamino)-N-methyl-benzamide]

Row | IC50 | Compound
20 | 113 nM | Cc1cc(I)ccc1Nc1c(C(=O)NOCC#Cc2cccc(F)c2)ccc(F)c1F [Example 34, 3,4-Difluoro-N-[3-(3-fluoro-phenyl)-prop-2-ynyloxy]-2-(4-iodo-2-methyl-phenylamino)-benzamide]
21 | 126 nM | CCCONC(=O)c1cc(Br)c(F)c(F)c1Nc1ccc(I)cc1C [Example 45, 5-Bromo-3,4-difluoro-2-(4-iodo-2-methyl-phenylamino)-N-propoxy-benzamide]
22 | 69 nM | O=C(NOC1CCCCO1)c1ccc(F)cc1Nc1ccc(I)cc1Cl (stereo not shown) [Example 88, 2-(2-Chloro-4-iodo-phenylamino)-4-fluoro-N-(tetrahydro-pyran-2-yloxy)-benzamide]
23 | 17 nM | Cc1cc(I)ccc1Nc1c(C(=O)NOCC#Cc2ccccc2)ccc(F)c1F [Example 32, 3,4-Difluoro-2-(4-iodo-2-methyl-phenylamino)-N-(3-phenyl-prop-2-ynyloxy)-benzamide]
24 | 236 nM | CCONC(=O)c1ccc(F)c(F)c1Nc1ccc(Br)cc1C [Example 41, 2-(4-Bromo-2-methyl-phenylamino)-N-ethoxy-3,4-difluoro-benzamide]
25 | 17 nM | Cc1cc(I)ccc1Nc1cc(F)c([N+](=O)[O-])cc1C(=O)NO [Example 81, 4-Fluoro-N-hydroxy-2-(4-iodo-2-methyl-phenylamino)-5-nitro-benzamide]
26 | 87 nM | CCCONC(=O)c1ccc(F)cc1Nc1ccc(I)cc1C [Example 42, 4-Fluoro-2-(4-iodo-2-methyl-phenylamino)-N-propoxy-benzamide]
27 | 16 nM | CC=CCONC(=O)c1ccc(F)c(F)c1Nc1ccc(I)cc1C [Example 69, N-(But-2-enyloxy)-3,4-difluoro-2-(4-iodo-2-methyl-phenylamino)-benzamide]
28 | 40 nM | CCCONC(=O)c1ccc(F)c(F)c1Nc1ccc(I)cc1C [Example 43, 3,4-Difluoro-2-(4-iodo-2-methyl-phenylamino)-N-propoxy-benzamide]
29 | 243 nM | CONC(=O)c1ccc(F)cc1Nc1ccc(I)cc1C [Example 13, 4-Fluoro-2-(4-iodo-2-methyl-phenylamino)-N-methoxy-benzamide]
30 | 38 nM | O=C(NOC1CCCCO1)c1cc(Br)c(F)c(F)c1Nc1ccc(I)cc1Cl (stereo not shown) [Example 94, 5-Bromo-2-(2-chloro-4-iodo-phenylamino)-3,4-difluoro-N-(tetrahydro-pyran-2-yloxy)-benzamide]
31 | 42 nM | Cc1cc(I)ccc1Nc1cc(F)ccc1C(=O)NOCc1ccoc1 [Example 20, 4-Fluoro-N-(furan-3-ylmethoxy)-2-(4-iodo-2-methyl-phenylamino)-benzamide]
32 | 728 nM | C#CC(C)ONC(=O)c1ccc(F)c(F)c1Nc1ccc(Br)cc1C (stereo not shown) [Example 28, 2-(4-Bromo-2-methyl-phenylamino)-3,4-difluoro-N-(1-methyl-prop-2-ynyloxy)-benzamide]
33 | 566 nM | Cc1cc(I)ccc1Nc1ccc(Cl)cc1C(=O)N(C)O [Example 5, 5-Chloro-N-hydroxy-2-(4-iodo-2-methyl-phenylamino)-N-methyl-benzamide]
34 | 76 nM | C#CCCONC(=O)c1ccc(F)c(F)c1Nc1ccc(I)cc1C [Example 29, N-(But-3-ynyloxy)-3,4-difluoro-2-(4-iodo-2-methyl-phenylamino)-benzamide]
35 | 23 nM | Cc1cc(I)ccc1Nc1ccc(Cl)cc1C(=O)NO [Example 4, 5-Chloro-N-hydroxy-2-(4-iodo-2-methyl-phenylamino)-benzamide]
36 | 2 nM | Cc1cc(I)ccc1Nc1c(C(=O)NOCC#Cc2ccccc2F)cc(Br)c(F)c1F [Example 37, 5-Bromo-3,4-difluoro-N-[3-(2-fluoro-phenyl)-prop-2-ynyloxy]-2-(4-iodo-2-methyl-phenylamino)-benzamide]
37 | 15 nM | C#CCONC(=O)c1ccc(F)c(F)c1Nc1ccc(I)cc1C [Example 71, 3,4-Difluoro-2-(4-iodo-2-methyl-phenylamino)-N-(prop-2-ynyloxy)-benzamide]
38 | 31 nM | Cc1cc(I)ccc1Nc1c(C(=O)NOC2CCCCO2)ccc(F)c1F (stereo not shown) [Example 83, 3,4-Difluoro-2-(4-iodo-2-methyl-phenylamino)-N-(tetrahydro-pyran-2-yloxy)-benzamide]

Row | Compound | IC50
39 | CC=CCONC(=O)c1cc(Br)c(F)c(F)c1Nc1ccc(I)cc1C [Example 24, 5-Bromo-N-(but-2-enyloxy)-3,4-difluoro-2-(4-iodo-2-methyl-phenylamino)-benzamide] | 21 nM
40 | O=C(NO)c1ccc(F)cc1Nc1ccc(I)cc1Cl [Example 87, 2-(2-Chloro-4-iodo-phenylamino)-4-fluoro-N-hydroxy-benzamide (HCl salt)] | < 1 nM
41 | CN(C)CCONC(=O)c1cc(Br)c(F)c(F)c1Nc1ccc(I)cc1Cl [Example 91, 5-Bromo-2-(2-chloro-4-iodo-phenylamino)-N-(2-dimethylamino-ethoxy)-3,4-difluoro-benzamide monohydrochloride salt] | 20 nM
42 | 4-Fluoro-2-(4-iodo-2-methyl-phenylamino)-N-phenylmethoxy-benzamide [Example 77] | 280 nM
43 | CC=CCONC(=O)c1ccc(F)c(F)c1Nc1ccc(Br)cc1C [Example 70, 2-(4-Bromo-2-methyl-phenylamino)-N-(but-2-enyloxy)-3,4-difluoro-benzamide] | 224 nM
